Measurements taken from the NIST ThermoML archive (doi:10.1016/j.jct.2011.05.014).

Test: excess molar enthalpy (molar enthalpy of mixing); xn = mol fraction of the nth substance listed
Conditions: 298.15 K, 101.33 kPa, Liquid, Parr 1455 Solution Calorimeter

O=Cc1ccccc1 [benzaldehyde] + CCCCCO
Conditions | excess molar enthalpy [kJ/mol]
x1 = 0.0899 | 0.636
x1 = 0.1799 | 1.179
x1 = 0.2699 | 1.59
x1 = 0.36 | 1.82
x1 = 0.4499 | 1.94
x1 = 0.54 | 1.95
x1 = 0.6259 | 1.843
x1 = 0.6898 | 1.687
x1 = 0.7523 | 1.494
x1 = 0.8094 | 1.254
x1 = 0.8426 | 1.09
x1 = 0.9015 | 0.771

O=Cc1ccccc1 [benzaldehyde] + CCCCO
Conditions | excess molar enthalpy [kJ/mol]
x1 = 0.0759 | 0.593
x1 = 0.1555 | 1.07
x1 = 0.2374 | 1.429
x1 = 0.3186 | 1.688
x1 = 0.4053 | 1.818
x1 = 0.4922 | 1.87
x1 = 0.5824 | 1.837
x1 = 0.6314 | 1.775
x1 = 0.6755 | 1.698
x1 = 0.7923 | 1.316
x1 = 0.8945 | 0.814
x1 = 0.9245 | 0.612

O=Cc1ccccc1 [benzaldehyde] + CCCO
Conditions | excess molar enthalpy [kJ/mol]
x1 = 0.0896 | 0.659
x1 = 0.1797 | 1.101
x1 = 0.2698 | 1.378
x1 = 0.3598 | 1.56
x1 = 0.4822 | 1.636
x1 = 0.5559 | 1.62
x1 = 0.5989 | 1.579
x1 = 0.647 | 1.524
x1 = 0.7017 | 1.417
x1 = 0.7626 | 1.258
x1 = 0.8323 | 0.9916
x1 = 0.9112 | 0.612

O=Cc1ccccc1 [benzaldehyde] + CCO
Conditions | excess molar enthalpy [kJ/mol]
x1 = 0.0912 | 0.591
x1 = 0.1809 | 0.9484
x1 = 0.2707 | 1.166
x1 = 0.3603 | 1.266
x1 = 0.4503 | 1.3
x1 = 0.5405 | 1.28
x1 = 0.628 | 1.198
x1 = 0.669 | 1.133
x1 = 0.7164 | 1.04
x1 = 0.7714 | 0.913
x1 = 0.8358 | 0.709
x1 = 0.9114 | 0.423

O=Cc1ccccc1 [benzaldehyde] + CO
Conditions | excess molar enthalpy [kJ/mol]
x1 = 0.0877 | 0.4
x1 = 0.1795 | 0.653
x1 = 0.2704 | 0.83
x1 = 0.3608 | 0.938
x1 = 0.4509 | 0.984
x1 = 0.5406 | 0.978
x1 = 0.6153 | 0.933
x1 = 0.6966 | 0.8296
x1 = 0.7344 | 0.7642
x1 = 0.7803 | 0.6709
x1 = 0.8379 | 0.534
x1 = 0.9092 | 0.326
